Drawing on patent US20230096028A1, “BICYCLIC HETEROCYCLYL COMPOUNDS AND USES THEREOF” (Revolution Medicines, Inc., priority 2019, published 2023), this text covers Kd and IC50 for 31 compounds.

The target of assay [1] is T1, SOS1 catalytic domain (residues 564-1049) (Homo sapiens, UniProt Q07889).
T1 sequence (Q07889 564-1049): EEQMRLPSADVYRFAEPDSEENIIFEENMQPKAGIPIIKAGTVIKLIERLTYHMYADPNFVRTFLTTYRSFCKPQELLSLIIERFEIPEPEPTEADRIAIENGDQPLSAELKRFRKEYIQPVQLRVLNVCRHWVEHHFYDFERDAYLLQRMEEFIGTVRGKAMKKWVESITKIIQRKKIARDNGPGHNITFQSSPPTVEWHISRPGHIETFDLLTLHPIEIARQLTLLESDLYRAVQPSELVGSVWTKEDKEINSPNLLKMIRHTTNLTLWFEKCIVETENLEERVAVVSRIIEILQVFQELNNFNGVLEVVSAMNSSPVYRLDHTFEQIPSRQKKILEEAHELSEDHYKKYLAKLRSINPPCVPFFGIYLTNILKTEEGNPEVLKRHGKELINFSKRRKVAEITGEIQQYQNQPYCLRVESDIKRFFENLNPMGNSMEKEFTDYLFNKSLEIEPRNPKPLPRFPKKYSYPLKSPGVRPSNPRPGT
Put plainly: Potency Assay: binding affinity to SOS1 using Surface Plasmon Resonance (SPR). The arrangement: SOS1 catalytic domain (residues 564-1049) immobilized on a sensor chip. Particulars: immobilized SOS1 catalytic domain (residues 564-1049), read-out: SOS1 SPR Equilibrium Kd. The procedure, abridged: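 Kd was obtained by plotting binding response, taken just before association ended, versus compound concentration on a Biacore 8K. Compounds flowed at 50 μL/min over streptavidin-captured avi-SOS1 catalytic domain (~6000 RU), followed by buffer dissociation; HEPES 0.01 M/NaCl 0.15 M/0.05% P20 buffer, double-referenced.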

In assay [2] the test system is PC-9 cells (EGFR Ex19Del). The experiment in a line: Potency Assay: pERK (SOS1 pERK IC50 Assay, AlphaLISA SureFire Ultra p-ERK1/2). Particulars: Homo sapiens; PC-9 cells (EGFR Ex19Del), 1 hour incubation, AlphaLISA p-ERK1/2; read-out: SOS1 pERK IC50. The assay is classed as cell-based. The method, boiled down:
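Cellular pERK1/2 by AlphaLISA SureFire Ultra after 1 h compound exposure (37° C., highest concentration 10 μM, 3-fold steps, duplicates) of EGFR Ex19Del PC-9 cells seeded the day before. A 4-parameter fit of signal versus log concentration gives IC50.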
On the technique in general: In Alpha technology, singlet oxygen from a donor bead excites a nearby acceptor bead.

Assay [3] concerns the target T1, SOS1 catalytic domain (residues 564-1049). The experiment in a line: Mode of Action Assay: inhibition of SOS1 nucleotide exchange activity (SOS1 TR-FRET IC50 Assay).

By Kd is commonly meant the concentration at which binding is half-saturated. One may read the IC50 as the concentration needed to halve the response being measured.

In the case of `C[C@@H](Nc1nc(C(F)F)nc2c1CN(C(=O)N1CCOCC1)C2)c1cc(N)cc(C(F)(F)F)c1` [Example 132, N-[(1R)-1-[3-amino-5-(trifluoromethyl)phenyl]ethyl]-2-(difluoromethyl)-6-(morpholine-4-carbonyl)-5H,6H,7H-pyrrolo[3,4-d]pyrimidin-4-amine], in assay [1], the Kd was less than 400 nM. Also, the IC50 in assay [2] and in assay [3] was less than 1000 nM in each case.
In the case of `C[C@@H](Nc1nc(Cl)nc2c1CN(C(=O)N1CC3CCC(C1)N3C1COC1)C2)c1cccc(C(F)F)c1F` [Example 423], the Kd in assay [1] is less than 400 nM. Also, the IC50 in assay [2] and in assay [3] was less than 1000 nM in each case.
Turning to `C[C@@H](Nc1nc(Cl)nc2c1CN(C(=O)[C@H]1CNCCO1)C2)c1cccc(C(F)(F)F)c1` [Example 281], the Kd in assay [1] was less than 400 nM. The IC50 in assay [2] and in assay [3] was less than 1000 nM each time.
Regarding `C[C@@H](Nc1nc(C#N)nc2c1CN(C(=O)N1CCOCC1)C2)c1cc(N)cc(C(F)(F)F)c1` [Example 123, 4-{[(1R)-1-[3-amino-5-(trifluoromethyl)phenyl]ethyl]amino}-6-(morpholine-4-carbonyl)-5H,6H,7H-pyrrolo[3,4-d]pyrimidine-2-carbonitrile], in assay [1], the Kd was less than 400 nM. The IC50 in assay [2] and in assay [3] was less than 1000 nM each time.
Consider `C[C@@H](Nc1nc(Cl)nc2c1CN(C(=O)N1CCNc3ncncc31)C2)c1cc(N)cc(C(F)(F)F)c1` [Example 354], for which the equilibrium dissociation constant (Kd) in assay [1] was less than 400 nM. For the same compound, the IC50 in assay [2] and in assay [3] was less than 1000 nM throughout.
With `COc1nccnc1C(=O)N1CCc2nc(Cl)nc(N[C@H](C)c3cc(N)cc(C(F)(F)F)c3)c2C1` [Example 231], the Kd in assay [1] was more than 400 nM. For the same compound, the IC50 in assay [2] and in assay [3] was more than 1000 nM throughout.
As for `COC1(C(=O)N2Cc3nc(CN)nc(N[C@H](C)c4cccc(C(F)(F)F)c4)c3C2)CCOCC1` [Example 350, (R)-(2-(aminomethyl)-4-((1-(3-(trifluoromethyl)phenyl)ethyl)amino)-5,7-dihydro-6H-pyrrolo[3,4-d]pyrimidin-6-yl)(4-methoxytetrahydro-2H-pyran-4-yl)methanone], in assay [1], the Kd was less than 400 nM. The IC50 in assay [2] and in assay [3] was less than 1000 nM in each case.
For `C[C@@H](Nc1nc(Cl)nc2c1CN(C(=O)C13CC(O)(C1)C3)CC2)c1cc(N)cc(C(F)(F)F)c1` [Example 193], the equilibrium dissociation constant (Kd) in assay [1] is less than 400 nM. Also, the IC50 in assay [2] and in assay [3] was more than 1000 nM in each case.
Take `C[C@@H](Nc1nc(Cl)nc2c1CN(C(=O)N1CCCC13CCN(C)C3)C2)c1cccc(C(F)F)c1F` (stereo partly drawn) [Example 413]: the dissociation constant Kd in assay [1] was less than 400 nM. Besides, the 50% inhibitory concentration (IC50) in assay [2] and in assay [3] was less than 1000 nM each time.
For the compound `COc1nccnc1C(=O)N1Cc2nc(Cl)nc(N[C@H](C)c3cc(N)cc(C(F)(F)F)c3)c2C1` [Example 75], the Kd in assay [1] was less than 400 nM. In addition, the IC50 in assay [2] and in assay [3] was less than 1000 nM throughout.
Take `C[C@@H](Nc1nc(Cl)nc2c1CN(C(=O)C1(C#N)CN(C)C1)C2)c1cccc(C(F)F)c1F` [Example 337]: the Kd in assay [1] was less than 400 nM. The half-inhibitory concentration (IC50) was more than 1000 nM in assay [2] and less than 1000 nM in assay [3].
On to `C[C@@H](Nc1nc(Cl)nc2c1CN(C(=O)N1CCOc3ncccc31)C2)c1cc(N)cc(C(F)(F)F)c1` [Example 365], for which, in assay [1], the Kd was less than 400 nM. Moreover, the IC50 in assay [2] and in assay [3] was less than 1000 nM in each case.
As for `C[C@@H](Nc1nc(Cl)nc2c1CN(C(=O)C1(O)COC1)C2)c1cccc(C(F)F)c1F` [Example 300], the Kd in assay [1] was less than 400 nM. Also, the IC50 in assay [2] and in assay [3] was less than 1000 nM throughout.
Consider `CC(=O)N1CCN(C(=O)N2Cc3nc(Cl)nc(N[C@H](C)c4cccc(C(F)F)c4F)c3C2)CC1` [Example 394], for which, in assay [1], the Kd is less than 400 nM. Also, the IC50 in assay [2] and in assay [3] was less than 1000 nM throughout.
Turning to `COc1ccc(S(=O)(=O)N2CCc3nc(Cl)nc(N[C@H](C)c4cc(N)cc(C(F)(F)F)c4)c3C2)cc1` [Example 454], the Kd in assay [1] was less than 400 nM. Also, the 50% inhibitory concentration (IC50) in assay [2] and in assay [3] was less than 1000 nM each time.
Take `C[C@@H](Nc1nc(Cl)nc2c1CN(C(=O)N1CCNC(C(F)(F)F)C1)C2)c1cccc(C(F)(F)F)c1` (stereo partly drawn) [Example 363]: the Kd in assay [1] is less than 400 nM. For the same compound, the IC50 in assay [2] and in assay [3] was less than 1000 nM each time.
Take `Nc1cc(CNc2nc(Cl)nc3c2CN(C(=O)N2CCOCC2)C3)cc(C(F)(F)F)c1` [Example 135, N-{[3-amino-5-(trifluoromethyl)phenyl]methyl}-2-chloro-6-(morpholine-4-carbonyl)-5H,6H,7H-pyrrolo[3,4-d]pyrimidin-4-amine]: the Kd in assay [1] is more than 400 nM. For the same compound, the IC50 in assay [2] and in assay [3] was more than 1000 nM each time.
For the compound `C[C@@H](Nc1nc(Cl)nc2c1CN(C(=O)c1cccnn1)CC2)c1cc(N)cc(C(F)(F)F)c1` [Example 235], the Kd in assay [1] was more than 400 nM. Further, the IC50 in assay [2] is more than 1000 nM; in assay [3], less than 1000 nM.
With `C[C@@H](Nc1nc(Cl)nc2c1CN(C(=O)N1CCNCC(F)(F)C1)C2)c1cccc(C(F)F)c1F` [Example 402], the Kd in assay [1] was less than 400 nM. Besides, the IC50 in assay [2] and in assay [3] was less than 1000 nM throughout.
As for `CC(Nc1nc(Cl)nc2c1CN(C(=O)N1CCOCC1)C2)c1cccc2c1OCCC2(F)F` (stereo not drawn) [Example 476, 2-chloro-N-[1-(4,4-difluoro-3,4-dihydro-2H-1-benzopyran-8-yl)ethyl]-6-(morpholine-4-carbonyl)-5H,6H,7H-pyrrolo[3,4-d]pyrimidin-4-amine], the Kd in assay [1] is less than 400 nM. Besides, the IC50 in assay [2] is more than 1000 nM; in assay [3], less than 1000 nM.
As to `C[C@@H](Nc1nc(Cl)nc2c1CN(C(=O)CN1CCOCC1)C2)c1cccc(C(F)F)c1F` [Example 292], in assay [1], the Kd was less than 400 nM. Further, the IC50 in assay [2] and in assay [3] was less than 1000 nM each time.
Regarding `C[C@@H](Nc1nc(Cl)nc2c1CC(N1CC3(COC3)C1)CC2)c1cccc(C(F)(F)CO)c1` (stereo partly drawn) [Example 438], in assay [1], the equilibrium dissociation constant (Kd) was less than 400 nM. In addition, the IC50 in assay [2] and in assay [3] was less than 1000 nM each time.
For `C[C@@H](Nc1nc(Cl)nc2c1CN(C(=O)C1(F)CCN(C)CC1)C2)c1cccc(C(F)F)c1F` [Example 326], in assay [1], the Kd is less than 400 nM. Further, the IC50 in assay [2] and in assay [3] was less than 1000 nM each time.
As for `C[C@@H](Nc1nc(Cl)nc2c1CN(C(=O)C1(C)CN(C3COC3)C1)C2)c1cccc(C(F)F)c1F` [Example 335], the Kd in assay [1] is less than 400 nM. In addition, the IC50 in assay [2] and in assay [3] was less than 1000 nM in each case.
Consider `C[C@@H](Nc1nc(Cl)nc2c1CN(C(=O)C1(C#N)CCOCC1)C2)c1cc(N)cc(C(F)(F)F)c1` [Example 255], for which, in assay [1], the Kd is less than 400 nM. In addition, the IC50 in assay [2] and in assay [3] was less than 1000 nM each time.
Consider `C[C@@H](Nc1nc(Cl)nc2c1CN(C(=O)N1CC3COCC(C1)N3)C2)c1cccc(C(F)F)c1F` [Example 385], for which, in assay [1], the Kd was less than 400 nM. Further, the IC50 in assay [2] and in assay [3] was less than 1000 nM throughout.
For the compound `C[C@@H](Nc1nc(Cl)nc2c1CN(C(=O)C1(C)CCN(C)CC1)C2)c1cc(N)cc(C(F)(F)F)c1` [Example 262], the Kd in assay [1] was less than 400 nM. The IC50 in assay [2] and in assay [3] was less than 1000 nM each time.
With `CC(Nc1nc(Cl)nc2c1CN(C(=O)N1CCOCC1)C2)c1ccc(-c2ccccc2CO)s1` (stereo not drawn) [Example 53, [2-chloro-4-[1-[5-[2-(hydroxymethyl)phenyl]-2-thienyl]ethylamino]-5,7-dihydropyrrolo[3,4-d]pyrimidin-6-yl]-morpholino-methanone], the Kd in assay [1] is more than 400 nM. In addition, the IC50 in assay [2] and in assay [3] was more than 1000 nM in each case.
Take `C[C@@H](Nc1nc(Cl)nc2c1CN(C(=O)N1CCN(C)CC(F)(F)C1)C2)c1cccc(C(F)F)c1F` [Example 419]: the Kd in assay [1] is less than 400 nM. Also, the IC50 in assay [2] and in assay [3] was less than 1000 nM each time.
`C[C@@H](Nc1nc(Cl)nc2c1CN(C(=O)C1CCN(C)C1)C2)c1cc(N)cc(C(F)(F)F)c1` (stereo partly drawn) [Example 101]: in assay [1], the Kd is less than 400 nM. The IC50 in assay [2] and in assay [3] was less than 1000 nM in each case.
Regarding `COC1CC(N)(C(=O)N2Cc3nc(Cl)nc(N[C@H](C)c4cccc(C(F)F)c4F)c3C2)C1` (stereo partly drawn) [Example 289], in assay [1], the Kd is less than 400 nM. For the same compound, the IC50 in assay [2] and in assay [3] was less than 1000 nM throughout.
